In patent US5962502A, “Polyamidic acid derivatives with antigastrin activity, a method for their preparation, and their pharmaceutical use” (priority 1993, dated 1999):
Values joined by “and” are separate entries in the source; they are usually repeats but may differ in a detail not shown here. Identical values can stand only once.

Columns and labels:
[1] = tested on: acid secretion induced by pentagastrin; experiment: Acid secretion induced by pentagastrin in the anaesthetized rat; type: in vivo; details: for ED50: iv, 1 h, I.V. bolus, pentagastrin 30 mcg/kg/h, read-out: Activity (ID50), inhibition of the acid secretion induced by pentagastrin; for antigastrin activity relative to the diastereoisomer at the carbon atom (**): pentagastrin-induced acid secretion
Procedure: The activity of the compounds of the invention against gastric secretion performed by means of a mechanism with an antigastrin effect, was examined in vivo in anaesthetized rats with the use of male animals weighing about 200 g. Gastric secretion was stimulated with pentagastrin and Lai's method [Gut 5, (1964), 327-341 ] was used, with slight modification.
After tracheotomy, the oesophagus and duodenum were cannulated. A tepid solution (37° C.) of 0.25 mM NaOH was perfused and was passed through the stomach by means of a peristaltic pump at a constant flow-rate of 1 ml/minute. After stabilization for 20 minutes, the stimulant, dissolved in a physiological solution, was perfused for 120 minutes at a dose of 30 mcg/kg/h, in a volume of 0.95 ml/hour. After perfusion for 60 minutes (the basal stimulation), the product under test was administered intravenously (I.V.) as a bolus and perfusion of the stimulant was continued for a further 60 minutes. The acid secretion was recorded continuously as a function of time.
The activity of the product was evaluated as the percentage reduction of secreted acidity after the administration of the product, in comparison with the basal acidity measured during the first 60 minutes of collection in the presence of pentagastrin alone.
The antagonistic compounds tested were administered in various doses so that an ID50, that is, the dose (in mg/kg I.V.) which could inhibit the effect of pentagastrin by 50%, could be calculated.

CCK-A = biological target: T1, CCK-A (Cavia porcellus, UniProt Q63931); experiment: Anti-CCK-A activity on guinea-pig gall bladder stimulated in vitro by CCK-8; details: for Ratio I/II (CCK-A IC50 / CCK-B IC50): gall bladder IC50 over gastric mucous cells IC50; for IC50: guinea-pig gall bladder in vitro, CCK-8 10 ng/ml, read-out: CCK-A-antagonistic activity IC50 (I)
T1 construct: A longitudinal strip of guinea-pig gall-bladder was put in a bath for isolated organs; from tissue; host or cells: guinea-pig gall bladder longitudinal strip
T1 sequence (Q63931 1-430): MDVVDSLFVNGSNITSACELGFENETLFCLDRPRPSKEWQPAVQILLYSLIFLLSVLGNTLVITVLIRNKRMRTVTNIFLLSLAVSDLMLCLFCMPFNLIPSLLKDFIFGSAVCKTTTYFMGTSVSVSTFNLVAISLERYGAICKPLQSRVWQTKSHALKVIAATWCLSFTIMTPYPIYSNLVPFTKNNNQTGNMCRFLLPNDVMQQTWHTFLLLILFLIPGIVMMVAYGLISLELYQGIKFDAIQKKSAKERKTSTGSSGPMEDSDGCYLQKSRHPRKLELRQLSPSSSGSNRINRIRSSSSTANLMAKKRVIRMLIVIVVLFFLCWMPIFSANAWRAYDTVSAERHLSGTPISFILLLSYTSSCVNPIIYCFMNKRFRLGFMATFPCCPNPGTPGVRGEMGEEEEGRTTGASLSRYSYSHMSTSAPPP
Procedure: The experimental model used was guinea-pig gall bladder stimulated in vitro by CCK-8, with the use of lorglumide as the reference standard. A longitudinal strip of guinea-pig gall-bladder was put in a bath for isolated organs in the presence of Krebs buffer at a temperature of 32° C., with continuous oxygenation with an oxygen-CO2 mixture (95-[…]). The isometric contractions were detected by means of a force transducer and recorded.

Ratio I/II (CCK-A IC50 / CCK-B IC50) (CCK-A) | IC50 (CCK-A) [µM] | Structure (SMILES) | ED50 [1] | antigastrin activity relative to the diastereoisomer at the carbon atom (**) [1]
940 | 9.4 | O=C(CC[C@@H](NC(=O)c1cc(Cl)cc(Cl)c1)C(=O)N1CCC2(CCCC2)CC1)N[C@H](Cc1c[nH]c2ccccc12)C(=O)O [Compound 21] | 7.9 mg/kg and 12.6 µmol/kg | almost the same antigastrin activity
108 | 5.4 | O=C(CC[C@@H](NC(=O)c1cc(Cl)cc(Cl)c1)C(=O)N1CCC2(CCCC2)CC1)N[C@H](Cc1ccccc1)C(=O)O [Compound 9, (R,R)-1[(1-carboxy-2-phenylethyl)amino]-1 oxo-5-(8-azaspiro[4.5]decan-8-yl)-4-(3,5-dichloro-benzoylamino)-5-oxopentanoic acid] | 12.3 mg/kg and 22.6 µmol/kg | about twice
